Assays:
[1] = biological target: human CSNK1A1 (Homo sapiens (Human), UniProt P48729); assay: CSNK1A1 Assay 2 (ADP-Glo, 1 μM ATP); type: biochemical; settings: median, Table 2, read-out: CSNK1A1 Assay 2 IC50 [mol/l] (median)
Procedure, shortened: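 GST-tagged full-length human CSNK1A1 from insect cells, preincubated 15 min with compound, then reacted 30 min at 22° C with 1 μM ATP and 30 μM biotinylated peptide substrate in pH 7.5 HEPES buffer. ADP measured by ADP-Glo luminescence; normalised to no-inhibitor (0%) and no-enzyme (100%) controls.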

[2] = biological target: human CSNK1D (Homo sapiens (Human), UniProt P48730); assay: CSNK1D assay (ADP-Glo, 1 μM ATP); type: biochemical; settings: median, Table 2, read-out: CSNK1D IC50 [mol/l] (median)
Sequence of human CSNK1D (P48730 whole entry): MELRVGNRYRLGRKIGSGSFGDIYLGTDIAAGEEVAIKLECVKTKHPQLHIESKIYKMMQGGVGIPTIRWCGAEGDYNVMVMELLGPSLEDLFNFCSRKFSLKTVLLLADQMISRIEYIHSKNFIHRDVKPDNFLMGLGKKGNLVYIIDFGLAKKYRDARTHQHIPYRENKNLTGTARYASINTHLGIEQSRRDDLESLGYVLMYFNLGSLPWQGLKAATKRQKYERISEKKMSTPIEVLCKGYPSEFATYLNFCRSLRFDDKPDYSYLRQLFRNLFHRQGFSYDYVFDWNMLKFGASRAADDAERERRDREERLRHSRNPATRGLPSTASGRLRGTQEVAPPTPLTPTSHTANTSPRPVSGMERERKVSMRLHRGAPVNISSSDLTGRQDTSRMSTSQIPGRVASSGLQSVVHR
Procedure, shortened: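 GST-tagged full-length human CSNK1D (baculovirus/insect cell; typically about 0.5 ng/μL) preincubated with compound 15 min, then reacted 30 min at 22 °C with 1 μM ATP and 30 μM biotinylated peptide (final) in HEPES pH 7.5 buffer. ADP quantified by ADP-Glo luminescence; data normalised to no-inhibitor and no-enzyme controls.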

Sequence of human CSNK1A1 (P48729 whole entry): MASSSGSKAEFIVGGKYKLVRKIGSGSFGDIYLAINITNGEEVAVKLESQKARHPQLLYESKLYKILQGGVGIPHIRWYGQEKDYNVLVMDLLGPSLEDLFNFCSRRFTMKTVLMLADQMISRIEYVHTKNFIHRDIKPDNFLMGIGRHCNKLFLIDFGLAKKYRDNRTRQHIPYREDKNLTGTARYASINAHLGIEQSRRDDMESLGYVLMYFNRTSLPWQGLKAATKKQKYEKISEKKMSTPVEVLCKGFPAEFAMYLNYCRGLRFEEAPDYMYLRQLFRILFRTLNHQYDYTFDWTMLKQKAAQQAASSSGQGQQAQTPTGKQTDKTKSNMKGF

Cc1cn(C)c(=O)c2c(Nc3ccccc3)c(-c3ccnc(NC(=O)C(C)c4ccc(F)cc4)c3)[nH]c12 (single isomer, unassigned) [Example 40, N-[4-(3-anilino-5,7-dimethyl-4-oxo-4,5-dihydro-1H-pyrrolo[3,2-c]pyridin-2-yl)pyridin-2-yl]-2-(4-fluorophenyl)propanamide]
IC50 [1]: 15 nM
IC50 [2]: 19 nM

Cc1cn(C)c(=O)c2c(Nc3ccccc3)c(-c3ccnc(NC(=O)C(C)c4ccc(F)cc4)c3)[nH]c12 (single isomer, unassigned) [Example 41, N-[4-(3-anilino-5,7-dimethyl-4-oxo-4,5-dihydro-1H-pyrrolo[3,2-c]pyridin-2-yl)pyridin-2-yl]-2-(4-fluorophenyl)propanamide]
IC50 [1]: 100 nM
IC50 [2]: 88 nM

CN1CC(CC(F)F)c2[nH]c(-c3ccnc(NC(=O)Cc4ccc(F)cc4)c3)c(Nc3ccccc3)c2C1=O (single isomer, unassigned) [Example 43, N-{4-[3-anilino-7-(2,2-difluoroethyl)-5-methyl-4-oxo-4,5,6,7-tetrahydro-1H-pyrrolo[3,2-c]pyridin-2-yl]pyridin-2-yl}-2-(4-fluorophenyl)acetamide]
IC50 [1]: 2.8 nM
IC50 [2]: 4.3 nM

CN1CC(CC(F)F)c2[nH]c(-c3ccnc(NC(=O)Cc4ccc(F)cc4)c3)c(Nc3ccccc3)c2C1=O (single isomer, unassigned) [Example 44, N-{4-[3-anilino-7-(2,2-difluoroethyl)-5-methyl-4-oxo-4,5,6,7-tetrahydro-1H-pyrrolo[3,2-c]pyridin-2-yl]pyridin-2-yl}-2-(4-fluorophenyl)acetamide]
IC50 [1]: 3.3 nM
IC50 [2]: 5.9 nM

CN1CC(CC(F)(F)F)c2[nH]c(-c3ccnc(NC(=O)Cc4ccc(F)cc4)c3)c(Nc3cscn3)c2C1=O (single isomer, unassigned) [Example 47, 2-(4-fluorophenyl)-N-{4-[(7R or S)-5-methyl-4-oxo-3-(1,3-thiazol-4-ylamino)-7-(2,2,2-trifluoroethyl)-4,5,6,7-tetrahydro-1H-pyrrolo[3,2-c]pyridin-2-yl]pyridin-2-yl}acetamide]
IC50 [1]: 3.4 nM
IC50 [2]: 8.4 nM

CN1CC(CC(F)(F)F)c2[nH]c(-c3ccnc(NC(=O)Cc4ccc(F)cc4)c3)c(Nc3cscn3)c2C1=O (single isomer, unassigned) [Example 48, 2-(4-fluorophenyl)-N-{4-[(7R or S)-5-methyl-4-oxo-3-(1,3-thiazol-4-ylamino)-7-(2,2,2-trifluoroethyl)-4,5,6,7-tetrahydro-1H-pyrrolo[3,2-c]pyridin-2-yl]pyridin-2-yl}acetamide]
IC50 [1]: 7.5 nM
IC50 [2]: 32 nM

CN1CC(CC2CC2)c2[nH]c(-c3ccnc(NC(=O)Cc4ccc(F)cc4)c3)c(Nc3cscn3)c2C1=O (single isomer, unassigned) [Example 50, N-{4-[(7R or S)-7-(cyclopropylmethyl)-5-methyl-4-oxo-3-(1,3-thiazol-4-ylamino)-4,5,6,7-tetrahydro-1H-pyrrolo[3,2-c]pyridin-2-yl]pyridin-2-yl}-2-(4-fluorophenyl)acetamide]
IC50 [1]: 5.1 nM
IC50 [2]: 9.9 nM

CN1CC(CC2CC2)c2[nH]c(-c3ccnc(NC(=O)Cc4ccc(F)cc4)c3)c(Nc3cscn3)c2C1=O (single isomer, unassigned) [Example 51, N-{4-[(7R or S)-7-(cyclopropylmethyl)-5-methyl-4-oxo-3-(1,3-thiazol-4-ylamino)-4,5,6,7-tetrahydro-1H-pyrrolo[3,2-c]pyridin-2-yl]pyridin-2-yl}-2-(4-fluorophenyl)acetamide]
IC50 [1]: 20 nM
IC50 [2]: 57 nM

CN1CC(CC(F)(F)F)c2[nH]c(-c3ccnc(NC(=O)C(CC(F)F)c4ccc(F)cc4)c3)c(Nc3cscn3)c2C1=O (single isomer, unassigned) [Example 53, (2R or S)-4,4-difluoro-2-(4-fluorophenyl)-N-{4-[(7R or S)-5-methyl-4-oxo-3-[(1,3-thiazol-4-yl)amino]-7-(2,2,2-trifluoroethyl)-4,5,6,7-tetrahydro-1H-pyrrolo[3,2-c]pyridin-2-yl]pyridin-2-yl}butanamide]
IC50 [1]: 21 nM
IC50 [2]: 35 nM

CN1CC(CC(F)(F)F)c2[nH]c(-c3ccnc(NC(=O)C(CC(F)F)c4ccc(F)cc4)c3)c(Nc3cscn3)c2C1=O (single isomer, unassigned) [Example 54, (2R or S)-4,4-difluoro-2-(4-fluorophenyl)-N-{4-[(7R or S)-5-methyl-4-oxo-3-[(1,3-thiazol-4-yl)amino]-7-(2,2,2-trifluoroethyl)-4,5,6,7-tetrahydro-1H-pyrrolo[3,2-c]pyridin-2-yl]pyridin-2-yl}butanamide]
IC50 [1]: 3 nM
IC50 [2]: 4 nM

CN1CC(CC(F)(F)F)c2[nH]c(-c3ccnc(NC(=O)C(CC(F)F)c4ccc(F)cc4)c3)c(Nc3cscn3)c2C1=O (single isomer, unassigned) [Example 55, (2R or S)-4,4-difluoro-2-(4-fluorophenyl)-N-{4-[(7R or S)-5-methyl-4-oxo-3-[(1,3-thiazol-4-yl)amino]-7-(2,2,2-trifluoroethyl)-4,5,6,7-tetrahydro-1H-pyrrolo[3,2-c]pyridin-2-yl]pyridin-2-yl}butanamide]
IC50 [1]: 59 nM
IC50 [2]: 110 nM

CN1CC(CC(F)(F)F)c2[nH]c(-c3ccnc(NC(=O)C(CC(F)F)c4ccc(F)cc4)c3)c(Nc3cscn3)c2C1=O (single isomer, unassigned) [Example 56, (2R or S)-4,4-difluoro-2-(4-fluorophenyl)-N-{4-[(7R or S)-5-methyl-4-oxo-3-[(1,3-thiazol-4-yl)amino]-7-(2,2,2-trifluoroethyl)-4,5,6,7-tetrahydro-1H-pyrrolo[3,2-c]pyridin-2-yl]pyridin-2-yl}butanamide]
IC50 [1]: 7.7 nM
IC50 [2]: 13 nM

CC1CN(C)C(=O)c2c1[nH]c(-c1ccnc(NC(=O)Cc3ccc(F)cc3)c1)c2Nc1ccccc1 (single isomer, unassigned; (+)) [Example 8, (+)-N-{4-[3-anilino-5,7-dimethyl-4-oxo-4,5,6,7-tetrahydro-1H-pyrrolo[3,2-c]pyridin-2-yl]pyridin-2-yl}-2-(4-fluorophenyl)acetamide]
IC50 [1]: 12 nM
IC50 [2]: 26 nM

O=C1N[C@@H]2CCC[C@@H]2c2[nH]c(-c3ccnc(NC(=O)C(CC(F)F)c4ccc(F)cc4)c3)c(Nc3ccccc3)c21 (single isomer, unassigned; (+)) [Example 22, (+)-(2R or S)—N-{4-[cis-3-anilino-4-oxo-1,4,5,5a,6,7,8,8a-octahydrocyclopenta[b]pyrrolo[2,3-d]pyridin-2-yl]pyridin-2-yl}-4,4-difluoro-2-(4-fluorophenyl)butanamide]
IC50 [1]: 5.4 nM
IC50 [2]: 6.3 nM

O=C1N[C@@H]2CCC[C@@H]2c2[nH]c(-c3ccnc(NC(=O)C(CC(F)F)c4ccc(F)cc4)c3)c(Nc3ccccc3)c21 (single isomer, unassigned; (+)) [Example 25, (+)-(2R or S)—N-{4-[cis-3-anilino-4-oxo-1,4,5,5a,6,7,8,8a-octahydrocyclopenta[b]pyrrolo[2,3-d]pyridin-2-yl]pyridin-2-yl}-4,4-difluoro-2-(4-fluorophenyl)butanamide]
IC50 [1]: 2.3 nM
IC50 [2]: 3.1 nM

CC1CN(C)C(=O)c2c1[nH]c(-c1ccnc(NC(=O)Cc3ccc(F)cc3)c1)c2Nc1ccccc1 (single isomer, unassigned; (-)) [Example 7, (−)-N-{4-[3-anilino-5,7-dimethyl-4-oxo-4,5,6,7-tetrahydro-1H-pyrrolo[3,2-c]pyridin-2-yl]pyridin-2-yl}-2-(4-fluorophenyl)acetamide]
IC50 [1]: 5.5 nM
IC50 [2]: 11 nM

O=C1N[C@@H]2CCC[C@@H]2c2[nH]c(-c3ccnc(NC(=O)C(CC(F)F)c4ccc(F)cc4)c3)c(Nc3ccccc3)c21 (single isomer, unassigned; (-)) [Example 23, (−)-(2R or S)—N-{4-[cis-3-anilino-4-oxo-1,4,5,5a,6,7,8,8a-octahydrocyclopenta[b]pyrrolo[2,3-d]pyridin-2-yl]pyridin-2-yl}-4,4-difluoro-2-(4-fluorophenyl)butanamide]
IC50 [1]: 24 nM
IC50 [2]: 38 nM

O=C1N[C@@H]2CCC[C@@H]2c2[nH]c(-c3ccnc(NC(=O)C(CC(F)F)c4ccc(F)cc4)c3)c(Nc3ccccc3)c21 (single isomer, unassigned; (-)) [Example 24, (−)-(2R or S)—N-{4-[cis-3-anilino-4-oxo-1,4,5,5a,6,7,8,8a-octahydrocyclopenta[b]pyrrolo[2,3-d]pyridin-2-yl]pyridin-2-yl}-4,4-difluoro-2-(4-fluorophenyl)butanamide]
IC50 [1]: 30 nM
IC50 [2]: 24 nM

CCC1CNC(=O)c2c1[nH]c(-c1ccnc(NC(=O)C(CC(F)F)c3ccc(F)cc3)c1)c2Nc1ccccc1 (stereo not shown) [Example 4, N-{4-[3-anilino-7-ethyl-4-oxo-4,5,6,7-tetrahydro-1H-pyrrolo[3,2-c]pyridin-2-yl]pyridin-2-yl}-4,4-difluoro-2-(4-fluorophenyl)butanamide]
IC50 [1]: 16 nM
IC50 [2]: 16 nM

CN1CC(CC(F)(F)F)c2[nH]c(-c3ccnc(NC(=O)C(CC(F)F)c4ccc(F)cc4)c3)c(Nc3ccccc3)c2C1=O (stereo not shown) [Example 17, N-{4-[3-anilino-5-methyl-4-oxo-7-(2,2,2-trifluoroethyl)-4,5,6,7-tetrahydro-1H-pyrrolo[3,2-c]pyridin-2-yl]pyridin-2-yl}-4,4-difluoro-2-(4-fluorophenyl)butanamide]
IC50 [1]: 17 nM
IC50 [2]: 17 nM
